Structures can show the parent of a compound that is named as a salt. Where two headings read alike, the source gives them in different places.
Experiments:
[1] = tested on: SARS-CoV-2 (BetaCov/Belgium/GHB-03021/2020) in VeroE6-EGFP cells; assay: microbe, parasite or virus in culture; format: cell-based; settings: for IC50: Severe acute respiratory syndrome coronavirus 2
SARS-CoV-2 3CL-Pro = SARS-CoV-2 3CL-Pro (Severe acute respiratory syndrome coronavirus 2, UniProt P0DTD1); assay: biochemical; settings: read-out: 3CL-Pro Inhibition [%]
SARS-CoV-2 PLpro = SARS-CoV-2 PLpro (Severe acute respiratory syndrome coronavirus 2, UniProt P0DTD1); assay: PLpro enzymatic assay (ISG15-AMC substrate); format: biochemical; settings: read-out: PL_Pro Inhibition [%]

| SMILES | % Confluence [1] | % Inhibition [1] | IC50 ([1]; read-out: IC50) | inhibition at 20 µM (SARS-CoV-2 3CL-Pro; primary screen at 20 µM, without DTT, read at 15 min, normalized to zinc pyrithione (100%) and DMSO (0%)) | inhibition at 20 µM (SARS-CoV-2 PLpro) | IC50 [1] | inhibition at 20 µM (SARS-CoV-2 3CL-Pro) |
| --- | --- | --- | --- | --- | --- | --- | --- |
| O=C(c1ccc(OCCN2CCCCC2)cc1)c1c(-c2ccc(O)cc2)sc2cc(O)ccc12 [Raloxifen hydrochloride, 1-[6-Hydroxy-2-(4-hydroxyphenyl)benzo[b]thien-3-yl]-1-[4-[2-(1-piperidinyl)ethoxy]phenyl]methanone] | 45.26% | 70.75% | 9.78 µM | – | – | – | – |
| c1ccc2c(c1)Sc1ccccc1N2C[C@H]1CN2CCC1CC2 (stereo in doubt) [Mequitazine, 10-(Quinuclidin-3-ylmethyl)-10H-phenothiazine] | 61.74% | 62.09% | 5.99 µM | – | – | – | – |
| CC(C)(Sc1cc(C(C)(C)C)c(O)c(C(C)(C)C)c1)Sc1cc(C(C)(C)C)c(OC(=O)CCC(=O)O)c(C(C)(C)C)c1 [Succinobucol, Succinic acid 2,6-di-tert-butyl-4-[1-(3,5-di-tert-butyl-4-hydroxyphenylsulfanyl)-1-methylethylsulfanyl]phenyl monoester] | 18.73% | 37.53% | – | – | – | – | – |
| CC(C)(C)NCc1ccc(Nc2ccnc3cc(Cl)ccc23)cc1O [N-tert-Butylisoquine, 2-[(tert-butylamino)methyl]-5-[(7-chloroquinolin-4-yl)amino]phenol] | 77.86% | 44.99% | – | – | – | – | – |
| Nc1ccc2cc3ccc(N)cc3nc2c1 [Proflavine, 3,6-diaminoacridine] | 8.56% | 208.4% | – | 89.9% | – | – | – |
| Cc1cc(O)c2c(=O)c3c(O)cc(O)c4c5c(O)cc(O)c6c(=O)c7c(O)cc(C)c8c1c2c(c34)c(c78)c65 [Hypericin, 1,3,4,6,8,13-Hexahydroxy-10,11-dimethylphenanthro[1,10,9,8-opqra]perylene-7,14-dione] | 20.85% | – | – | – | 40.1% | 0.25 µM | 45.7% |
| CC(C)c1ccc2c(c1)C(N1CCN(CCO)CC1)Cc1ccc(F)cc1S2 (centres unmarked) [Isofloxythepin, 2-[4-(9-fluoro-3-propan-2-yl-5,6-dihydrobenzo[b][1]benzothiepin-5-yl)piperazin-1-yl]ethanol] | 67.67% | 35.39% | 106 µM | – | – | – | – |
